# Results taken from article PMC11093748, “De novo identification of CD4^+ T cell epitopes” (Nature Methods, 2024).
# Tests used:
# Format in all cases: cell-based, mouse
# [1] = tested on: TCR4; test: Single SABR-II co-incubation, NFAT-GFP Jurkat; settings: TCR 4
# Summary of the method: (§1)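 Single SABR-II constructs for putative cognate epitopes were expressed in CellTrace Violet-labelled NFAT–GFP Jurkat cells and co-incubated 1:1 (5 × 10^5 each) with TCR-expressing Jurkat cells for 16–20 h. GFP (with CD69 staining when indicated) was measured by flow cytometry. Wells with GFP above the no-TCR control were scored positive.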
# [2] = tested on: TCR15; test: Single SABR-II co-incubation, NFAT-GFP Jurkat; settings: TCR 15, Fig 3B, 18 h
# Summary of the method: as §1
# [3] = tested on: TCR11; test: Single SABR-II co-incubation, NFAT-GFP Jurkat; settings: TCR 11
# Summary of the method: as §1
# [4] = tested on: TCR30; test: Single SABR-II co-incubation, NFAT-GFP Jurkat; settings: TCR 30
# Summary of the method: as §1
# [5] = tested on: TCR24; test: Single SABR-II co-incubation, NFAT-GFP Jurkat; settings: TCR 24, Fig 3B, 18 h
# Summary of the method: as §1
# [6] = tested on: TCR37; test: Single SABR-II co-incubation, NFAT-GFP Jurkat; settings: TCR 37, Fig 3B, 18 h
# Summary of the method: as §1
# [7] = tested on: TCR37; test: mIL-2 ELISA, TCR-expressing 5KC cells with SABR NFAT-GFP Jurkat cells; settings: murine IL-2 ELISA, 24 hr co-incubation
# [8] = Fig 3B, 18 h, biological replicate 1
# [9] = Fig 3B, 18 h, biological replicate 2
# [10] = Fig 3B, 18 h, biological replicate 3
sequence,measurement,setting,value
LQTLALNAARDP,%GFP+CD69+ cells of SABR-NFAT-GFP-Jurkat cells,"[1]; Ext. Data Fig. 6C, 18-20 hr, technical replicate 1",21.3%
same,%GFP+CD69+ cells of SABR-NFAT-GFP-Jurkat cells,"[1]; Ext. Data Fig. 6C, 18-20 hr, technical replicate 2",21.3%
same,%GFP+CD69+ cells of SABR-NFAT-GFP-Jurkat cells,[1]; [8],36.63%
same,%GFP+CD69+ cells of SABR-NFAT-GFP-Jurkat cells,[1]; [9],32.63%
same,%GFP+CD69+ cells of SABR-NFAT-GFP-Jurkat cells,[1]; [10],39.93%
same,%GFP+CD69+ cells of SABR-NFAT-GFP-Jurkat cells,"[1]; Fig 4B, technical replicate 1",25.9%
same,%GFP+CD69+ cells of SABR-NFAT-GFP-Jurkat cells,"[1]; Fig 4B, technical replicate 2",25.4%
same,%GFP+CD69+ cells of SABR-NFAT-GFP-Jurkat cells,"[1]; Fig 5C, technical replicate 1",42.4%
same,%GFP+CD69+ cells of SABR-NFAT-GFP-Jurkat cells,"[1]; Fig 5C, technical replicate 2",42.4%
same,%GFP+CD69+ cells of SABR-NFAT-GFP-Jurkat cells,[2]; biological replicate 1,39.97%
same,%GFP+CD69+ cells of SABR-NFAT-GFP-Jurkat cells,[2]; biological replicate 2,41.2%
same,%GFP+CD69+ cells of SABR-NFAT-GFP-Jurkat cells,[2]; biological replicate 3,48.23%
SHLVEALYLVCGERG,%GFP+CD69+ cells of SABR-NFAT-GFP-Jurkat cells,[3]; [8],7.09%
same,%GFP+CD69+ cells of SABR-NFAT-GFP-Jurkat cells,[3]; [9],7.41%
same,%GFP+CD69+ cells of SABR-NFAT-GFP-Jurkat cells,[3]; [10],7.96%
same,%GFP+CD69+ cells of SABR-NFAT-GFP-Jurkat cells,"[3]; Fig 4B, technical replicate 1",4.58%
same,%GFP+CD69+ cells of SABR-NFAT-GFP-Jurkat cells,"[3]; Fig 4B, technical replicate 2",4.07%
same,%GFP+CD69+ cells of SABR-NFAT-GFP-Jurkat cells,[4]; [8],5.68%
same,%GFP+CD69+ cells of SABR-NFAT-GFP-Jurkat cells,[4]; [9],7.14%
same,%GFP+CD69+ cells of SABR-NFAT-GFP-Jurkat cells,[4]; [10],5.4%
same,%GFP+CD69+ cells of SABR-NFAT-GFP-Jurkat cells,"[4]; Fig 4B, replicate 1",3.98%
same,%GFP+CD69+ cells of SABR-NFAT-GFP-Jurkat cells,"[4]; Fig 4B, replicate 2",3.65%
same,%GFP+CD69+ cells of SABR-NFAT-GFP-Jurkat cells,"[4]; Fig 4B, replicate 3",3.27%
same,%GFP+CD69+ cells of SABR-NFAT-GFP-Jurkat cells,[5]; biological replicate 1,14.87%
same,%GFP+CD69+ cells of SABR-NFAT-GFP-Jurkat cells,[5]; biological replicate 2,17.6%
same,%GFP+CD69+ cells of SABR-NFAT-GFP-Jurkat cells,[5]; biological replicate 3,16.8%
same,%GFP+CD69+ cells of SABR-NFAT-GFP-Jurkat cells,[6]; biological replicate 1,31.07%
same,%GFP+CD69+ cells of SABR-NFAT-GFP-Jurkat cells,[6]; biological replicate 2,38.77%
same,%GFP+CD69+ cells of SABR-NFAT-GFP-Jurkat cells,[6]; biological replicate 3,34.13%
same,IL-2 secretion,[7]; technical replicate 1,37.8351
same,IL-2 secretion,[7]; technical replicate 2,38.2928
